Drawing on publication PMC3823594, “Conformational Changes Underlying Pore Dilation in the Cytoplasmic Domain of Mammalian Inward Rectifier K^+ Channels” (PLoS ONE, 2013), this text covers Hill coefficient for 1 compound.

As a reminder, the Hill coefficient is the slope factor of the fitted curve.

The structures appear in SMILES notation. Changes are numbered by the printed parent chain.

For test [1], the target named is T1, Kir3.2 E236N (Mus musculus, UniProt P48542, E236N).
T1 sequence (P48542 19-425 E236N): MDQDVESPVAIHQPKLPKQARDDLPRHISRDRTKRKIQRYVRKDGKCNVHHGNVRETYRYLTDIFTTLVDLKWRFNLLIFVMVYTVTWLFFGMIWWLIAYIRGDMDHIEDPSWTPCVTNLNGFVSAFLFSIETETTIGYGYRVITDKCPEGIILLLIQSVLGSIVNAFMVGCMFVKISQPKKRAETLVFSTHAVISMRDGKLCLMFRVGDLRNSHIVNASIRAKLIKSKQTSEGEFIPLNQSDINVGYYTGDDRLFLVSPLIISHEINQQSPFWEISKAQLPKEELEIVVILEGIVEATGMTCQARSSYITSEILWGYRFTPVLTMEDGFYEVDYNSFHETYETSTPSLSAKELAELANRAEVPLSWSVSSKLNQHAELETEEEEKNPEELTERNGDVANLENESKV
T1 sequence (P06199 1-466 partner): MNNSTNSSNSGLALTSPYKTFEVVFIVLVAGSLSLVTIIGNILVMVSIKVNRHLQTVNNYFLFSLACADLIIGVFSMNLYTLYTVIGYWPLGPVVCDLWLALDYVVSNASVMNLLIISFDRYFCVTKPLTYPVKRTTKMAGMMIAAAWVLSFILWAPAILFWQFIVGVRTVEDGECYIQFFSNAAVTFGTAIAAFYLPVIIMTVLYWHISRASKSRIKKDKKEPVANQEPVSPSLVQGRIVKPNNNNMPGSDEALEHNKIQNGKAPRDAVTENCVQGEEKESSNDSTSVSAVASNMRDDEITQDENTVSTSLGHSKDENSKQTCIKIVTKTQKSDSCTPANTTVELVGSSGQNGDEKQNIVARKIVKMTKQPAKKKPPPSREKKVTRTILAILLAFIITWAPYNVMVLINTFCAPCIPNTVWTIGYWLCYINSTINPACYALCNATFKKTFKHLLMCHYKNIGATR
As to the kind of experiment: Two-electrode voltage clamp, ACh-dependent (m2R-dependent) K+ current activation. Format: cell-based. The settings on record: Kir3.2 E236N with porcine m2R in Xenopus oocytes; −120 mV; Hill equation fit.

For test [2], the target named is T2, Kir3.2 E236A (Mus musculus, UniProt P48542, E236A).
T2 sequence (P48542 19-425 E236A): T1 sequence (P48542 19-425 E236N) with N218A
T2 sequence (P06199 1-466 partner): T1 sequence (P06199 1-466 partner)
The test is described as above. The test is classed as cell-based. The settings on record: Kir3.2 E236A with porcine m2R in Xenopus oocytes; −120 mV; Hill equation fit.

For `CC(=O)OCC[N+](C)(C)C` [ACh, acetylcholine], the Hill coefficient in test [1] worked out at 0.82 ± 0.08; in test [2], 1.12 ± 0.04.
